From the supplement of paper PMC10307832 come the findings set out here.

What all share (assay): relative viability (nuclei count vs DMSO), 5 days (fraction); higher = more cells survive
Compound in the experiment “TPCA-1 + OSI-027”: C1=CC(=CC=C1C2=CC(=C(S2)NC(=O)N)C(=O)N)F [TPCA-1] + COc1cccc2cc(-c3nc([C@H]4CC[C@H](C(=O)O)CC4)n4ncnc(N)c34)[nH]c12 [OSI-027] (partner 0.5 µM)
In a few lines:
(§1)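 Lung cancer cell lines in 1536-well plates got either a single drug or a fixed anchor-drug dose together with five library-drug doses (not always all listed) in √10 steps, by pin tool, on the day after seeding. Nuclei were counted after 5 days, and relative viability is the treated-to-vehicle ratio of nuclei counts. Values are medians of duplicate plates.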

Compound in experiment [1]: C1/C(=C\C2=CC=CS2)/C(=O)/C(=C/C3=CC=CS3)/C1 + Cc1cc(Nc2cc(N3CCN(C)CC3)nc(Sc3ccc(NC(=O)C4CC4)cc3)n2)n[nH]1 [Tozasertib] (partner 0.1 µM)
In a few lines:
as §1

Compound in experiment [2]: C[C@]12O[C@H](C[C@]1(O)CO)n1c3ccccc3c3c4c(c5c6ccccc6n2c5c31)CNC4=O [Lestaurtinib] + CS(=O)(=O)N1CCN(Cc2cc3nc(-c4cccc5[nH]ncc45)nc(N4CCOCC4)c3s2)CC1 [Pictilisib] (partner 1 µM)
In a few lines: as §1

Compound in experiment [3]: C[C@]12O[C@H](C[C@]1(O)CO)n1c3ccccc3c3c4c(c5c6ccccc6n2c5c31)CNC4=O [Lestaurtinib] + O=C(CCCCCCC(=O)Nc1ccccc1)NO [Vorinostat] (partner 1 µM)
In a few lines: as §1

Regarding PC-3 [JPC-3], the relative viability was determined as 0.83 with TPCA-1 + OSI-027 (first compound 0.04 µM); 0.702 with TPCA-1 + OSI-027 (first compound 0.1265 µM); 0.73 in the experiment with TPCA-1 + OSI-027 (first compound 0.4 µM); 0.654 in the experiment with TPCA-1 + OSI-027 (first compound 1.265 µM); 0.615 in the experiment with TPCA-1 + OSI-027 (first compound 4 µM); 0.924 in experiment [1] (first compound 0.2 µM). In addition, the relative viability in experiment [1] (first compound 0.6325 µM) worked out at 0.843; in experiment [1] (first compound 2 µM), 0.824; in experiment [1] (first compound 6.325 µM), 0.746; in experiment [1] (first compound 20 µM), 0.896; in experiment [2] (first compound 0.005 µM), 0.77; in experiment [2] (first compound 0.01581 µM) it was 0.736. In addition, the relative viability in experiment [2] (first compound 0.05 µM) came to 0.555; in experiment [2] (first compound 0.1581 µM), 0.606; in experiment [2] (first compound 0.5 µM), 0.408; in experiment [3] (first compound 0.005 µM), 0.644; in experiment [3] (first compound 0.01581 µM) it was 1.15; in experiment [3] (first compound 0.05 µM), 0.866. Besides, the relative viability was 0.816 in experiment [3] (first compound 0.1581 µM) and 0.469 in experiment [3] (first compound 0.5 µM).
As to PC-14, the relative viability in the experiment with TPCA-1 + OSI-027 (first compound 0.04 µM) stood at 0.954; with TPCA-1 + OSI-027 (first compound 0.1265 µM), 0.717; with TPCA-1 + OSI-027 (first compound 0.4 µM), 0.951; in the experiment with TPCA-1 + OSI-027 (first compound 1.265 µM) it was 0.593; in the experiment with TPCA-1 + OSI-027 (first compound 4 µM), 0.341; in experiment [1] (first compound 0.2 µM), 0.604. Also, the relative viability in experiment [1] (first compound 0.6325 µM) was 0.59; in experiment [1] (first compound 2 µM) it was 0.597; in experiment [1] (first compound 6.325 µM) it was 0.571; in experiment [1] (first compound 20 µM), 0.595; in experiment [2] (first compound 0.005 µM), 0.639; in experiment [2] (first compound 0.01581 µM), 0.49. Further, the relative viability in experiment [2] (first compound 0.05 µM) is 0.283; in experiment [2] (first compound 0.1581 µM), 0.254; in experiment [2] (first compound 0.5 µM) it was 0.171; in experiment [3] (first compound 0.005 µM), 0.718; in experiment [3] (first compound 0.01581 µM), 0.558; in experiment [3] (first compound 0.05 µM) it was 0.509. Also, the relative viability was 0.324 in experiment [3] (first compound 0.1581 µM) and 0.0543 in experiment [3] (first compound 0.5 µM).
Take RERF-LC-KJ: the relative viability stood at 0.674 with TPCA-1 + OSI-027 (first compound 0.04 µM); 0.489 in the experiment with TPCA-1 + OSI-027 (first compound 0.1265 µM); 0.565 with TPCA-1 + OSI-027 (first compound 0.4 µM); 0.532 in the experiment with TPCA-1 + OSI-027 (first compound 1.265 µM); 0.485 with TPCA-1 + OSI-027 (first compound 4 µM); 0.475 in experiment [1] (first compound 0.2 µM). The relative viability in experiment [1] (first compound 0.6325 µM) was determined as 0.566; in experiment [1] (first compound 2 µM), 0.533; in experiment [1] (first compound 6.325 µM), 0.46; in experiment [1] (first compound 20 µM), 0.455; in experiment [2] (first compound 0.005 µM), 0.593; in experiment [2] (first compound 0.01581 µM), 0.235. Moreover, the relative viability in experiment [2] (first compound 0.05 µM) came out at 0.458; in experiment [2] (first compound 0.1581 µM) it was 0.387; in experiment [2] (first compound 0.5 µM), 0.243; in experiment [3] (first compound 0.005 µM), 0.56; in experiment [3] (first compound 0.01581 µM), 0.683; in experiment [3] (first compound 0.05 µM), 0.538. For the same cell line, the values for the relative viability in experiment [3] (first compound 0.1581 µM) and in experiment [3] (first compound 0.5 µM) were 0.588 and 0.375, respectively.
As to SK-LU-1, the relative viability turned out to be 0.4 in the experiment with TPCA-1 + OSI-027 (first compound 0.04 µM); 0.317 in the experiment with TPCA-1 + OSI-027 (first compound 0.1265 µM); 0.312 with TPCA-1 + OSI-027 (first compound 0.4 µM); 0.248 in the experiment with TPCA-1 + OSI-027 (first compound 1.265 µM); 0.234 in the experiment with TPCA-1 + OSI-027 (first compound 4 µM); 0.329 in experiment [1] (first compound 0.2 µM). Moreover, the relative viability in experiment [1] (first compound 0.6325 µM) amounted to 0.385; in experiment [1] (first compound 2 µM) it was 0.419; in experiment [1] (first compound 6.325 µM), 0.271; in experiment [1] (first compound 20 µM), 0.36; in experiment [2] (first compound 0.005 µM), 0.464; in experiment [2] (first compound 0.01581 µM), 0.464. In addition, the relative viability is 0.297 in experiment [2] (first compound 0.05 µM); 0.436 in experiment [2] (first compound 0.1581 µM); 0.246 in experiment [2] (first compound 0.5 µM); 0.668 in experiment [3] (first compound 0.005 µM); 0.667 in experiment [3] (first compound 0.01581 µM); 0.491 in experiment [3] (first compound 0.05 µM). The relative viability in experiment [3] (first compound 0.1581 µM) turned out to be 0.415; in experiment [3] (first compound 0.5 µM) it was 0.277.
For SK-MES-1, the relative viability with TPCA-1 + OSI-027 (first compound 0.04 µM) was 0.589; with TPCA-1 + OSI-027 (first compound 0.1265 µM) it was 0.567; with TPCA-1 + OSI-027 (first compound 0.4 µM) it was 0.558; with TPCA-1 + OSI-027 (first compound 1.265 µM), 0.319; with TPCA-1 + OSI-027 (first compound 4 µM), 0.211; in experiment [1] (first compound 0.2 µM), 0.922. Also, the relative viability is 0.977 in experiment [1] (first compound 0.6325 µM); 0.942 in experiment [1] (first compound 2 µM); 0.818 in experiment [1] (first compound 6.325 µM); 0.831 in experiment [1] (first compound 20 µM); 0.322 in experiment [2] (first compound 0.005 µM); 0.312 in experiment [2] (first compound 0.01581 µM). Besides, the relative viability came out at 0.259 in experiment [2] (first compound 0.05 µM); 0.262 in experiment [2] (first compound 0.1581 µM); 0.177 in experiment [2] (first compound 0.5 µM); 1.18 in experiment [3] (first compound 0.005 µM); 1.05 in experiment [3] (first compound 0.01581 µM); 0.487 in experiment [3] (first compound 0.05 µM). Besides, the relative viability in experiment [3] (first compound 0.1581 µM) amounted to 0.411; in experiment [3] (first compound 0.5 µM), 0.215.
Take SW 1573: the relative viability in the experiment with TPCA-1 + OSI-027 (first compound 0.04 µM) was determined as 0.898; in the experiment with TPCA-1 + OSI-027 (first compound 0.1265 µM), 0.402; with TPCA-1 + OSI-027 (first compound 0.4 µM) it was 0.641; with TPCA-1 + OSI-027 (first compound 1.265 µM) it was 0.666; in the experiment with TPCA-1 + OSI-027 (first compound 4 µM), 0.438; in experiment [1] (first compound 0.2 µM), 0.175. Further, the relative viability came out at 0.13 in experiment [1] (first compound 0.6325 µM); 0.176 in experiment [1] (first compound 2 µM); 0.158 in experiment [1] (first compound 6.325 µM); 0.139 in experiment [1] (first compound 20 µM); 0.624 in experiment [2] (first compound 0.005 µM); 0.562 in experiment [2] (first compound 0.01581 µM). Further, the relative viability in experiment [2] (first compound 0.05 µM) stood at 0.454; in experiment [2] (first compound 0.1581 µM), 0.314; in experiment [2] (first compound 0.5 µM), 0.174; in experiment [3] (first compound 0.005 µM) it was 0.767; in experiment [3] (first compound 0.01581 µM), 0.864; in experiment [3] (first compound 0.05 µM), 0.488. The figures for the relative viability in experiment [3] (first compound 0.1581 µM) and in experiment [3] (first compound 0.5 µM) were 0.424 and 0.198, respectively.
